Test results published in patent publication US6818391B2, “Glutamate transporters” (The Regents of the University of California, priority 2000, dated 2004).
“And” between values parts separate entries of the source, which are not always exact repeats. Equal entries are not always repeated. “Also recorded” adds a separate entry of the source.

Legend:
[1] = target: T1, DNPI/VGLUT2 (Rattus norvegicus, UniProt Q9JI12); test: 3H-L-glutamate uptake by membranes from PC12 cells expressing DNPI/VGLUT2; type: biochemical
T1 construct: To reconstruct the full open reading frame, the missing segment was amplified from rat brain cDNA by PCR; expressed in transfected cells; light membranes prepared from them
T1 sequence (Q9JI12 1-582): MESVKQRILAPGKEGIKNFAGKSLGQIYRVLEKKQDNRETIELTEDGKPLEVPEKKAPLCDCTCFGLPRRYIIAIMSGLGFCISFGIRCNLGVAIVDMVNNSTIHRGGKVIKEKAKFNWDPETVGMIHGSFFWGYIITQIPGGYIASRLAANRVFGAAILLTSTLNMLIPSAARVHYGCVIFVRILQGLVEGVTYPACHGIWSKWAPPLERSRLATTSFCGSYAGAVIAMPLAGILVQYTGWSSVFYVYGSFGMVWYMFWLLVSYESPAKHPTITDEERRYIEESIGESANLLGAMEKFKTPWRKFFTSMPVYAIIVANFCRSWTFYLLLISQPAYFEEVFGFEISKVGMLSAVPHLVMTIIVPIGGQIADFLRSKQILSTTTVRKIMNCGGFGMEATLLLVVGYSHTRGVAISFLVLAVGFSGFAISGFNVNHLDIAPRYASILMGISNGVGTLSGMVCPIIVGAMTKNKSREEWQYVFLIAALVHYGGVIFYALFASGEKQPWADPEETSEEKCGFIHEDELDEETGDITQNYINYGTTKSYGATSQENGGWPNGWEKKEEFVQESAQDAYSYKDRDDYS
Description: PC12 cells were grown in Dulbecco's modified Eagle's medium containing 10% equine serum, 5% calf serum and transfected by electroporation with the rat DNPI/VGLUT2 cDNA subcloned in the pcDNA3 vector containing an […] (Krantz et al. (2000) J. Cell Biol. 149). Stable transformants were selected for resistance to the neomycin analog G418 (500 μg/ml) and screened by immunofluorescence with the DNPI antibody, resulting in the identification of two independent clones with more than 80% of the cells expressing DNPI.
For membrane preparation, untransfected and DNPI-expressing PC12 cells were grown on 15 cm plates, washed with calcium- and magnesium-free PBS, collected in 0.32 M sucrose/10 mM HEPES-KOH, pH 7.4 (SH buffer) containing protease inhibitors (2 μg/ml leupeptin, 1 μg/ml pepstatin, 1 μg/ml E64, 0.2 mM diisopropylfluorphosphate, 2 μg/ml aprotinin, and 1.25 mM MgEGTA), homogenized using a ball bearing device and the homogenate sedimented at 1000 g for 5 min to remove nuclei and debris. The supernatant was then sedimented at 27,000 g for 35 min to remove heavier membranes. The remaining light membranes including small synaptic-like microvesicles were then sedimented at 210,000 g for 1 hour. The pellet was resuspended in SH buffer with protease inhibitors at ˜10 mg protein/ml.
To initiate the transport reaction, 20 μl membranes (˜200 μg protein) were added to 180 μl SH buffer containing 4 mM KCl, 4 mM MgSO4, […], and 100 μM ^3H-L-glutamate, with other additions noted in the text and figure legends. The reaction mixture was incubated at 29° C. for varying intervals, uptake was terminated by rapid filtration through Supor-200 membranes (Gelman) and the filters were washed rapidly four times with 1.5 ml cold 0.155 M potassium tartrate/10 mm HEPES-KOH, pH 7.4 before measuring the bound radioactivity by scintillation counting in 3 ml Cytoscint (ICN). Uptake specifically mediated by DNPI/VGLUT2 was determined by subtracting the background uptake of untransfected cell membranes from the uptake by transfected cell membranes. To examine the chloride dependence of transport, varying proportions of 0.14 M K gluconate and 0.14 M KCl were mixed in the standard reaction buffer (without sucrose) to vary the chloride concentration and maintain constant osmolarity. The ionophores nigericin and valinomycin used in FIG. 13E were prepared as 200× stock solutions in ethanol. The final ethanol concentration in the reaction mixture was 1%.

[2] = target: T2, BNPI (VGLUT1) (Rattus norvegicus, UniProt Q62634); test: acridine orange fluorescence quenching (vesicle acidification) of BNPI-expressing membranes; type: biochemical; details: for acidification of BNPI-expressing versus control membranes: 90 mM chloride (KCl)
T2 construct: expressed in transfected cells; light membranes prepared from them
T2 sequence (Q62634 1-560): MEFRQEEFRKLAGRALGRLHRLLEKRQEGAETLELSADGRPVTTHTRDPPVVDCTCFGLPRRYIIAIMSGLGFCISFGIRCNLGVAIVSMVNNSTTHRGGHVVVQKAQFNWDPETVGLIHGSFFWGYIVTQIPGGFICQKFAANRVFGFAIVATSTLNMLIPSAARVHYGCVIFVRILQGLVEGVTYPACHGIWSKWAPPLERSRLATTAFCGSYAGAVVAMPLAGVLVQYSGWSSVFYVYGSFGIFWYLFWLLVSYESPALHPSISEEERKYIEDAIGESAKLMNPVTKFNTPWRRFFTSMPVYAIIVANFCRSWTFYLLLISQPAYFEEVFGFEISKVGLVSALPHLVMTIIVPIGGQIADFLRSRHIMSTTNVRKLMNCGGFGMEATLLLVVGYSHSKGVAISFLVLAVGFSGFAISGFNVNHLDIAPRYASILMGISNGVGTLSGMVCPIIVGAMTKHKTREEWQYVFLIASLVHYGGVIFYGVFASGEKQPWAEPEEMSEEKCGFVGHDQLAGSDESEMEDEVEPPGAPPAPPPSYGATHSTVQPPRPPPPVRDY
Description: Native synaptic vesicles acidify during glutamate uptake (Maycox et al. (1988) J. Biol. Chem., 263: 15423). Glutamate presumably serves as a counterion for protons and dissipates ΔΨ, enabling the vacuolar H+-ATPase to generate a larger ΔpH, but cotransport of H+ with glutamate remains an alternative possibility. To determine whether acidification also accompanies glutamate transport by BNPI, we used the quenching of acridine orange fluorescence to measure vesicle pH. Membranes (200 μg of protein) were diluted into 2 ml of 0.3 M sucrose and 10 mM tris-Mops (pH 7.4) containing 4 mM MgSO4 and 5 μM acridine orange and incubated at 37° C. with continuous stirring. Fluorescence was monitored with a Hitachi F4500 spectrofluorimeter at an excitation wavelength of 492 nm and emission of 530 nm. Separate measurements were made with at least three different membrane preparations for wild-type and transfected cells; representative tracings are shown in FIG. 5.

SMILES | specific 3H-L-glutamate uptake by DNPI at high chloride ([1]; 140 mM chloride) | chloride concentration for maximal 3H-L-glutamate uptake by DNPI ([1]; uptake at 5 minutes) | acidification of BNPI-expressing versus control membranes [2] | acidification of BNPI-expressing versus control membranes ([2]; listed as KCl) | inhibition of DNPI-mediated 3H-L-glutamate uptake ([1]; 10 mM, uptake at 5 minutes) | Km ([1]; initial rate at 1 minute, 0.03-10 mM L-glutamate, Lineweaver-Burke) | acidification (lumenal pH) of membranes expressing BNPI ([2]; 10 mM glutamate, with ATP and 4 mM KCl) | effect on rate of chloride-dependent acidification of BNPI membranes ([2]; 10 mM, KCl 20, 50, 140 mM) | effect on acidification of BNPI-expressing membranes by chloride ([2]; 10 mM, listed as Glutamate) | effect on acidification of BNPI-expressing membranes by chloride ([2]; 10 mM, listed as glutamate)
Cl [chloride] | little or no specific uptake is detectable | 2 to 10 mM and ~2 mM | produces more acidification | considerably greater |  |  |  |  |  | 
N[C@@H](CCC(=O)O)C(=O)O [L-Glutamate] |  |  |  |  | markedly inhibits | 4.7 mM and ~5 mM | reduced the lumenal pH; also recorded: acidifies membranes expressing BNPI | reduces the rate of acidification | blocks this chloride conductance; also recorded: reduces the acidification | decreased the acidification produced by chloride
